One assay deals with T1, SUMO1-DPP9 interaction (Homo sapiens, UniProt P63165).
T1 construct: made in house; DPP9: Sf9 insect cells
Briefly: ELISA: competition of SUMO1 binding to immobilized DPP9. As to conditions: SUMO1 pre-incubated with varying concentrations of peptide. As to the method:
A. HA-tagged DPP9 mutants (DPP9V285A, DPP9V287A, DPP9I288A and DPP9V290) were expressed in HEK293T cells and purified using anti-HA beads agarose. Purified DPP9 proteins (input) were then incubated with SUMO1-immobilized beads. Bound DPP9 was eluted and analysed by western blotting using anti HA antibodies. B. Alignment of the amino-acid sequences corresponding to the ‘arms’ of DPP9 (SEQ ID NO: 3), DPP8 (SEQ ID NO: 4) and DPPIV (SEQ ID NO: 5). C A homology model of DPP9 (published by (Park et al., 2008)), shown from the ‘back’ side and the ‘front’ (180° rotation) side, which also reveal the so-called side opening. Color code: the hydrolase domain is dark grey, the eight-bladed propeller is light grey and the extended SUMO-binding-arm is indicated. D. Results of an ELISA assay. […] The SUMO1-peptide mix was then added to immobilized DPP9, and interacting SUMO1 was quantified using SUMO1-specific antibodies.
ELISA: A 96 well plate (Immuno 96 MicroWell™ Solid Plates, Nunc) was coated with 600 ng purified recombinant proteins per well in 100 μl TB, overnight at 4° C. […] Interacting proteins were detected using specific antibodies diluted in ELISA buffer: goat anti DPP9 antibody or anti GMP antibody (SUMO1). […] Absorbance was measured at 420 nm on an Appliskan microplate fluorimeter (Thermo Scientific) and the Skanit software. […]
(In general: ELISA stands for enzyme-linked immunosorbent assay.)

Assay [1] deals with T2, DPP9 (Homo sapiens, UniProt Q86TI2).
T2 construct: made in house; host or cells: Sf9 insect cells (baculovirus)
Briefly: Kinetics assay, Ki for inhibition of DPP9 (GP-AMC hydrolysis). Type of assay: biochemical. As to the method: (§1) Enzyme kinetics and the Ki of DPP8 or DPP9 may be determined as follows: 25 nM purified recombinant enzyme (DPP9 or DPP8) are incubated with varying concentrations of GP-AMC ([…] GP-AMC), in TB buffer (20 mM Hepes/KOH pH 7.3, 110 mM potassium acetate, 2 mM Mg acetate, 0.5 mM EGTA), supplemented with 0.2% Tween-20, 1 mM dithiothreitol. Experiments are performed in triplicates. To measure Ki values, for each set of experiments, inhibitory peptides are added to DPP9 or DPP8. Peptide concentrations tested are in the range between 0.04 to 50 μM. Release of AMC from GP-AMC is measured using the Appliskan microplate fluorimeter (Thermo Scientific) with 380 nm (excitation) and 480 nm (emission) filters and the Skanit software, and analysed using the Prism software.
(§2) A&B 25 nM purified recombinant (A) DPP9 or (B) DPP8 were incubated with varying concentrations of the EIL peptide (0, 3.3 μM and 6.6 μM) and tested for hydrolysis of GP-AMC (1000, 500, 250, 125, 0 μM). C. 25 nM DPPIV was tested for the hydrolysis of GP-AMC (500, 250, 125, 0 μM) in the presence of 0 or 13 μM EIL peptide. Fluorescence was measured using the Appliskan microplate fluorimeter (Thermo Scientific) with 380 nm (excitation) and 480 nm (emission) filters and the Skanit software, and analysed using the Prism software. Each experiment was performed at least three times, in replicates of four.
(§3) Kinetics assays: Purified recombinant DPP9 (25 nM) was incubated with varying concentrations of GP-AMC, in TB supplemented with 0.2% Tween-20, 1 mM ditiothreitol. For inhibition assays, inhibitory peptides were added directly to the reaction mixture. For activation by SUMO 0.2 mg/ml BSA, was added to the buffer to prevent non specific binding. DPP9 were incubated with 2.5 μM of either SUMO1, SUMO1 E67A, SUMO2 for 2 hour on ice prior to the assay. Alternatively DPP9 was incubated with 1 μM of RanGAP or RanGAP modified with either SUMO1 or SUMO2 for 2 hours prior to the assay. Fluorescence was measured using the Appliskan microplate fluorimeter (Thermo Scientific) with 380 nm (excitation) and 480 nm (emission) filters and the Skanit software, and analysed using the Prism software. Each experiment was performed at least three times, in replicates of four.

In assay [2] the target is T2, DPP9. Briefly: Inhibition of GP-AMC hydrolysis by purified recombinant DPP9 at a single peptide concentration. The settings on record: 25 nM DPP9, 0.2 mM GP-AMC, 10 μM peptide; DPP9 alone = 100.3. Type of assay: biochemical. As to the method:
Accordingly, the peptide is capable of inhibiting the activity of wild-type DPP9 (SEQ ID NO: 6) to a level of 35 to 5% of the activity of wild-type DPP9 (SEQ ID NO: 6) if not inhibited, as determined in an assay using 25 nM purified DPP9, 0.2 mM GP-AMC, and 14 μM of the peptide to be tested, in TB buffer (20 mM Hepes/KOH pH 7.3, 110 mM potassium acetate, 2 mM Mg acetate, 0.5 mM EGTA), supplemented with 0.2% Tween-20, 1 mM dithiothreitol. Release of AMC from GP-AMC is measured using the Appliskan microplate fluorimeter (Thermo Scientific) with 380 nm (excitation) and 480 nm (emission) filters and the Skanit software, and analysed using the Prism software.
as §3
To improve the inhibition of DPP9, the inventors tested several peptide libraries composed of truncated variants of the EIL peptide (>80% pure, ordered from Genescript). These peptides were incubated with recombinant DPP9 and analysed GP-AMC hydrolysis. AMC release was then compared to samples containing either DPP9 alone, or the EIL peptide.

The next assay deals with DPPIV (Homo sapiens, UniProt P27487). Description: GP-AMC hydrolysis by DPPIV in the presence of peptide. Type of assay: biochemical. The settings on record: concentrations measured up to 50 μM. The method, then:
Preferably, the peptide is capable of inhibiting the activity by wild-type DPP9 (SEQ ID NO: 6) to a level of 30 to 5%, 29 to 5%, 28 to 5%, 27 to 5%, 26 to 5%, 25 to 5%, 24 to 5%, 23 to 5%, 22 to 5%, 21 to 5%, 20 to 5%, 19 to 5%, 18 to 5%, 17 to 5%, 16 to 5%, 15 to 5%, 14 to 5%, 13 to 5%, 12 to 5%, 11 to 5%, 10 to 5%, 9 to 5%, 8 to 5%, such as 7.5 to 5% of the activity of wild-type DPP9 (SEQ ID NO: 6) if not inhibited. […] Release of AMC from GP-AMC is measured using the Appliskan microplate fluorimeter (Thermo Scientific) with 380 nm (excitation) and 480 nm (emission) filters and the Skanit software, and analysed using the Prism software.
as §2

Assay [3] deals with HeLa cells. Description: MTT proliferation assay of HeLa cells expressing the peptide. Type of assay: cell-based, human. The settings on record: Ubiquitin-SLRFLYEG-YFP construct, 32 hours after transfection, vs control plasmid or mock. As to the method:
To test whether DPP8/9 inhibition effects cell viability, the inventors performed MTT (3-4,5-dimethylthiazol-2-yl)-2,5-diphenyltetrazolium bromide) based assays, which are widely used to measure cell proliferation and growth (e.g. in clinical settings for testing tumor sensitivity to chemotherapeutic agents). This assay involves the conversion of the water soluble MTT to an insoluble formazan. The formazan is then solubilized in 0.1N HCl. Absorbance is then determined at 570 nm. For a prolonged exposure of cells to the allosteric DPP8/9 inhibitor […] (SEQ ID NO: 38), the inventors cloned the peptide into a mammalian expression vector pEYFP-N1 from Clontech. The peptide inhibitor contains a serine at its amino-termini. Thus, to avoid expression of the peptide with a methionine residue at its amino terminus, it was cloned in frame with ubiquitin. Once expressed in cells, the ubiquitin moiety is cleaved by ubiquitin isopeptidases to release the […]-YFP (SEQ ID NO: 38) construct. A control construct was included that lacked the […] (SEQ ID NO: 38) peptide (Ubiquitin-YFP). […] 32 hours after transfection, cells were analyzed via a standard MTT assay.
Briefly, cell media was removed and replaced by 0.5 mg/ml of MTT reagent. […] Absorbance was measured with a microplate fluorimeter. […]
For orientation: Formazan colour is commonly taken as a measure of viable cells.

In assay [4] the test system is HeLa cells. Description: Cytosolic prolyl peptidase activity of HeLa cells treated with peptide alone or with Pep-1. The assay is classed as cell-based, human. As to conditions: 5 μM peptide, 30 min, also in the absence of carrier peptide Pep-1. As to the method:
In another experiment, HeLa cells were treated for 30 minutes with either 5 μM […] (SEQ ID NO: 38) alone or in complex with the carier peptide Pep-1. Cells were then typsinized and cytosolic extracts were prepared and tested for cleavage of the model substrate GP-AMC. Upper panel: […] (SEQ ID NO: 38) was allowed to form a complex with carrier peptide Pep-1 at a molar ratio of 1:10 (cargo:carrier) in FCS free DMEM for 30 min at 37° C. Lower panel: As a comparison, the inhibitory peptide […] was used also in the absence of carrier peptide, at the same concentration. For control, the solvent DMSO was used. These mixtures were overlaid onto HeLa cells allowing the entry for 30 minutes at 37° C. Cells were then trypsinized and lysed in TB buffer containing 0.2% Tween. After ultracentrifugation, the cytosolic extract were probed for DPP activity using […] of the fluorogenic substrate GP-AMC. Each experiment was performed in triplicates.

The next assay addresses T3, DPP8 (Homo sapiens, UniProt Q6V1X1).
T3 construct: made in house; host or cells: Sf9 insect cells (baculovirus)
Description: Kinetics assay, Ki for inhibition of DPP8 (GP-AMC hydrolysis). Type of assay: biochemical. As to the method:
as §1, §2

A further assay relates to HEK293 cells. Description: Cytosolic prolyl peptidase activity of HEK293 cells treated with peptide plus carrier Peptide 1. Type of assay: cell-based, human. The settings on record: 5 μM peptide with 100 μM Peptide 1, 30 min, 5 μg extract, 500 μM GP-AMC. As to the method:
Cells were incubated for 30 minutes with 0 μM, 5 μM or 10 μM […] (SEQ ID NO: 40) and 100 μM carrier pep-1. Cytosolic extracts of cells (5 μg) were then tested for hydrolysis of 0.5 mM GP-AMC.
The inventors tested whether the inhibitory peptides can be inserted into cells. For this purpose the inventors established a method using a well characterized carrier peptide: Peptide 1 ([…]; SEQ ID NO: 48), in combination with […] (SEQ ID NO: 40). To test for effective inhibition, the inventors measured for hydrolysis of an artificial DPP8 and DPP9 substrate: GP-AMC, specifically in cytosolic extracts. For this, 5 μM or 10 μM of […] (SEQ ID NO: 40) were incubated with 100 μM Peptide 1, at 37° C. for 30 minutes, in […] DMEM without FCS, supplemented with glutamine and antibiotics. Once a complex was formed between the […] (SEQ ID NO: 40) and peptide 1, it was added to HEK293 cells (human embryonic kidney cells), grown in 24 well plates (50% confluence), and incubated for 30 minutes at 37° C. Cells were then trypsinized and washed twice with PBS buffer. Cell pellet was shock frozen in liquid nitrogen. […] Fluorescence was measured using the Appliskan microplate fluorimeter (Thermo Scientific) with 380 nm (excitation) and 480 nm (emission) filters and the Skanit software, and analysed using the Prism software.

No end group written: not given here.

This note sets out measurements from patent US9593148B2, “DPP8 and DPP9 peptide inhibitors” (GEORG-AUGUST-UNIVERSITAT GOTTINGEN STIFTUNG OFFENTLICHEN …, priority 2012, dated 2017).

T2 sequence (Q86TI2 1-892 isoform Q86TI2-2): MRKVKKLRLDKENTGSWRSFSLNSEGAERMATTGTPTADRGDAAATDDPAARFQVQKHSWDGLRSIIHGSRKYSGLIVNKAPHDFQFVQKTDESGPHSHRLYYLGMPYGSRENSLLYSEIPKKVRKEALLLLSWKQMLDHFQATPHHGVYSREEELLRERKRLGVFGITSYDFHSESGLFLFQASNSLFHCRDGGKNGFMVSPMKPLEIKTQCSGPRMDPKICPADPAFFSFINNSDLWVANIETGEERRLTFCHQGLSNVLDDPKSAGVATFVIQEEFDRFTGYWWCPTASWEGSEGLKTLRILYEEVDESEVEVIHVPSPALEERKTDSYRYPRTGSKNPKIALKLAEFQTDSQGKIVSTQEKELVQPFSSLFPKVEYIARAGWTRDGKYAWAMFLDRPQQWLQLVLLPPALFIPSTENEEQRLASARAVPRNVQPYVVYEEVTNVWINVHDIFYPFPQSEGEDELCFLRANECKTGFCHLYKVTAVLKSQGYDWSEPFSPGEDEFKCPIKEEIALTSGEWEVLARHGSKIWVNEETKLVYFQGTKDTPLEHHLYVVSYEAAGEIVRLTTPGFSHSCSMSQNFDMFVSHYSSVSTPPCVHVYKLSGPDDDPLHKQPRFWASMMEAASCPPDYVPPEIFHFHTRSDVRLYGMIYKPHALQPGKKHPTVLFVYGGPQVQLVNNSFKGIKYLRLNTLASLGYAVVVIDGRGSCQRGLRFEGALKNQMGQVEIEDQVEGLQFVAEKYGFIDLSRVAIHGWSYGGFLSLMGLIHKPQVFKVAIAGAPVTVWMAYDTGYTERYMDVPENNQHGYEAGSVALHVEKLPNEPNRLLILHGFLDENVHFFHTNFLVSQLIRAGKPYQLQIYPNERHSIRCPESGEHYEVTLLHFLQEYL
T3 sequence (Q6V1X1 whole entry): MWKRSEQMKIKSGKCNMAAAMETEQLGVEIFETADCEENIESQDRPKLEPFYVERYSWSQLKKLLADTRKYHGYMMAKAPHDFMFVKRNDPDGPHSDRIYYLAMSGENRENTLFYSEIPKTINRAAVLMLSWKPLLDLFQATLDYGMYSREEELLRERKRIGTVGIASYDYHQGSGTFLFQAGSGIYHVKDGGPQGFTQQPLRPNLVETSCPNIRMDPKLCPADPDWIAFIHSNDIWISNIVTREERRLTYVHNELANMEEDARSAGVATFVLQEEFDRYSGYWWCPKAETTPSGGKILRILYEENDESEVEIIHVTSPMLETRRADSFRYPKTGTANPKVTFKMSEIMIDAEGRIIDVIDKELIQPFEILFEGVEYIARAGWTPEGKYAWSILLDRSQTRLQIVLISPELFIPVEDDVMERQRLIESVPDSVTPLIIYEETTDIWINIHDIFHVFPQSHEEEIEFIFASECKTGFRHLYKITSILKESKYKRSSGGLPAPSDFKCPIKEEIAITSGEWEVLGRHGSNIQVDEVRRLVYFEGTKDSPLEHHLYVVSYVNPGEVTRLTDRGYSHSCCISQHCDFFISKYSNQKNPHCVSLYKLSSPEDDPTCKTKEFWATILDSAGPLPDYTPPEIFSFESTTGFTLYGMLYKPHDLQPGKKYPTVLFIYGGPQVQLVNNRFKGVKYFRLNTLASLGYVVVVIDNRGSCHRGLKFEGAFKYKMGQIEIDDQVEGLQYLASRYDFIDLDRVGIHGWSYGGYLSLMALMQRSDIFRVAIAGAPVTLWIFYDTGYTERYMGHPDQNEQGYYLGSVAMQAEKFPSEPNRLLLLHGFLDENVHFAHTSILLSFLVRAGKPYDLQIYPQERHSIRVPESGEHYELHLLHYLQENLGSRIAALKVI
Chain of DPPIV (P27487 whole entry): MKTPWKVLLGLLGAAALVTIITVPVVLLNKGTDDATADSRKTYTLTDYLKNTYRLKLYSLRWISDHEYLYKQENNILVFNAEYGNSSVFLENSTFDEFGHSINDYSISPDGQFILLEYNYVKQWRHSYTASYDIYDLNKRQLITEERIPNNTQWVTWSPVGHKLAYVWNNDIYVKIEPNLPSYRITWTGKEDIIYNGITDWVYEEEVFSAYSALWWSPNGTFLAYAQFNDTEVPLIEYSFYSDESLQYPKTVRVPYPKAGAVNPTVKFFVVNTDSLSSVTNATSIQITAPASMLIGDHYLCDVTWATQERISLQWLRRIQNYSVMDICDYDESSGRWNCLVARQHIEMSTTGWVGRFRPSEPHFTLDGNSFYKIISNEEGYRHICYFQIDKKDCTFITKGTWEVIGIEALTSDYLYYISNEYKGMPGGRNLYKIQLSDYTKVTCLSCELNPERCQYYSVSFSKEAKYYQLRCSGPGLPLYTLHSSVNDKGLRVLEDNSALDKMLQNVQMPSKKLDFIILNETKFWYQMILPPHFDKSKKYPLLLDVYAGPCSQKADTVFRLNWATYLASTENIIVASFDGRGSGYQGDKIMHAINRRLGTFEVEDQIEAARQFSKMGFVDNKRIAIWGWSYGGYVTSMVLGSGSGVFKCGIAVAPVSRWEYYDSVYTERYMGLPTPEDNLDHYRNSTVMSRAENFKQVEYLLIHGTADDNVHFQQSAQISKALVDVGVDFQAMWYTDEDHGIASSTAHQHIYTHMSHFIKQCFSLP
T1 sequence (P63165 2-97 limits assumed): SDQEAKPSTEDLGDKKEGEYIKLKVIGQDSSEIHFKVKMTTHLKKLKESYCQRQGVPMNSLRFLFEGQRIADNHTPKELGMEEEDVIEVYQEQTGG

As to “VEVIHVPSPALEERKTDSYR (listed as Homo sapiens) [DPP9-arm peptide, peptide corresponding to the extended arm of DPP9 (285-304)]”, in the assay with SUMO1-DPP9 interaction, the “competition with DPP9 for binding to SUMO1” value is listed as “competed with DPP9 for binding to SUMO1 in a concentration dependent manner”.
As usually defined, the Ki is the dissociation constant of the complex between target and ligand, obtained from inhibition or displacement. With H-SLRFLYEG, at DPP9 [1], the “fold increased efficiency compared to the EIL peptide (Ki DPP9)” value is reported as 18.5 fold. The inhibition constant (Ki) on DPP9 [1] (read-out: Ki for DPP9) came to 400 nM. Besides, the “% DPP9 activity (Mean)” value at DPP9 [2] is on record as 10.92%. The “inhibitory effect towards DPPIV” value at DPPIV is reported as “no inhibitory effect”. Besides, the “reduction in cell proliferation” value in the assay on HeLa cells [3] is recorded as “at least 50%”. For the same substance, the “cytosolic prolyl peptidase activity after exposure of cells” value in the assay on HeLa cells [4] was “inhibits cytosolic prolyl peptidase activity”. Further, at DPP8, the Ki was 3600 nM and the “fold lower affinity for DPP8 compared to DPP9” value is listed as 9 fold.
On to SLRFLYAG, for which, in the assay with HEK293 cells, the “inhibition of cytosolic prolyl peptidase activity” value was approximately 30%.
